This note sets out measurements from patent publication US8846746B2, “Pyrazole compound and pharmaceutical use thereof” (Japan Tobacco Inc., priority 2011, dated 2014).

As a reminder, the IC50 is the concentration that gives 50% inhibition. A word on the inhibition: it is the share of the control response that was lost under treatment.

The structures appear in SMILES notation.

In the first experiment the target is human SGLT1 (Homo sapiens (Human), UniProt P13866). Put plainly: SGLT1 inhibitory activity: 14C-AMG uptake into CHO-K1 cell line stably expressing human SGLT1. Format: cell-based. The note with it: 14C-AMG uptake, CHO-K1 cells stably expressing human SGLT1. In outline: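 Human SGLT1 was stably expressed in CHO-K1 cells. Cells were first held 20 min in sodium-free buffer, then exposed to compound in Na(+)/BSA buffer with tracer and AMG (2 mM in the added solution).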
human SGLT1, sequence (P13866 whole entry): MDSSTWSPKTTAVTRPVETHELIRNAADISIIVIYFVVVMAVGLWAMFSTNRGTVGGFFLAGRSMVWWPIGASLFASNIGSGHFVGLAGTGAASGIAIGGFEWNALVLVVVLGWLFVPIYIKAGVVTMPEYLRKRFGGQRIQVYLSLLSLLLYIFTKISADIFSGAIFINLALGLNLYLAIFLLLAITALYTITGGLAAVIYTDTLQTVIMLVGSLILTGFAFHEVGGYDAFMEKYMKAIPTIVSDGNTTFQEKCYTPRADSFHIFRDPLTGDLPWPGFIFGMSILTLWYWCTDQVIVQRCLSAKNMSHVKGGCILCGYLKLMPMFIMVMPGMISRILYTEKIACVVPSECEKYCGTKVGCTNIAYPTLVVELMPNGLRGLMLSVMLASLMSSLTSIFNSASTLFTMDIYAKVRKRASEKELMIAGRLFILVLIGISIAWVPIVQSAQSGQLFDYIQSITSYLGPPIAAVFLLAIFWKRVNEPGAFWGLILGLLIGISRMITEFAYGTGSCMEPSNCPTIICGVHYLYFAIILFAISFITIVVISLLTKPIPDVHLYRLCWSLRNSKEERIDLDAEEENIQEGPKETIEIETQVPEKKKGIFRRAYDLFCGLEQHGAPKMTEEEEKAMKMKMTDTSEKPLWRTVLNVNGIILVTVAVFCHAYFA
Consider `O=C1C[C@H](C(=O)Nc2cc(-c3cccc(COC(C(F)(F)F)C(F)(F)F)c3)n(-c3ccc(Cl)cc3)n2)CN1` [Example 576], for which the IC50 was determined as 19 nM.
`C[C@@H](OCc1cc(Cl)cc(-c2cc(NC(=O)[C@@H]3CNC(=O)C3)nn2-c2ccccc2F)c1)C(F)(F)F` [Example 577] displayed an IC50 of 6.7 nM.
On the same count and under the same terms, the result for `C[C@@H](OCc1cc(Cl)cc(-c2cc(NC(=O)[C@@H]3CNC(=O)C3)nn2-c2cccc(F)c2)c1)C(F)(F)F` [Example 578] reads 8.5 nM.
Same read-out and setting: with `O=C1C[C@H](C(=O)Nc2cc(-c3cc(Cl)cc(COC(C(F)(F)F)C(F)(F)F)c3)n(-c3ccccc3)n2)CN1` [Example 579] the figure was 23 nM; with `CC(C)(OCc1cc(F)cc(-c2cc(NC(=O)[C@@H]3CNC(=O)C3)nn2-c2ccc(Cl)cc2)c1)C(F)(F)F` [Example 580], 7.6 nM; with `CC(C)(OCc1cc(Cl)cc(-c2cc(NC(=O)[C@@H]3CNC(=O)C3)nn2-c2ccc(F)cc2)c1)C(F)(F)F` [Example 581], 12 nM.
On the same count and under the same terms, with `C[C@@H](OCc1cc(Cl)cc(-c2cc(NC(=O)[C@@H]3CNC(=O)C3)nn2C2CCOCC2)c1)C(F)(F)F` [Example 584] the figure was 84 nM; with `O=C1C[C@H](C(=O)Nc2cc(-c3cc(F)cc(COC(C(F)(F)F)C(F)(F)F)c3)n(-c3ccccc3)n2)CN1` [Example 585], 13 nM.
Compound `O=C1C[C@H](C(=O)Nc2cc(-c3cc(Cl)cc(COCC(F)(F)F)c3)n(-c3ccccc3)n2)CN1` [Example 586] showed a half-maximal inhibitory concentration (IC50) of 46 nM.
The same measure, in the same setting: the result for `O=C1C[C@H](C(=O)Nc2cc(-c3cc(Cl)cc(COCC(F)(F)F)c3)n(-c3ccccc3F)n2)CN1` [Example 587] reads 40 nM.
The same measure, in the same setting: the result for `O=C1C[C@H](C(=O)Nc2cc(-c3cc(Cl)cc(COCC(F)(F)F)c3)n(-c3cccc(F)c3)n2)CN1` [Example 588] reads 40 nM; that for `O=C1C[C@H](C(=O)Nc2cc(-c3cc(Cl)cc(COCC(F)(F)F)c3)n(-c3ccc(F)cc3)n2)CN1` [Example 589], 55 nM.
For `C[C@@H](OCc1cccc(-c2cc(NC(=O)[C@H]3CNC(=O)N3)nn2-c2ccc(Cl)cc2)c1)C(F)(F)F` [Example 590], the IC50 was 13 nM.
On the same count and under the same terms, with `CC(C)(OCc1cc(Cl)cc(-c2cc(NC(=O)[C@H]3CNC(=O)N3)nn2-c2ccccc2)c1)C(F)(F)F` [Example 594] the figure was 66 nM.
The same measure, in the same setting: the result for `CC(C)(OCc1cc(F)cc(-c2cc(NC(=O)[C@@H]3CNC(=O)C3)nn2-c2ccc(F)cc2)c1)C(F)(F)F` [Example 595] reads 10 nM.
For the compound `O=C1NC[C@H](C(=O)Nc2cc(-c3cc(F)cc(COCC(F)(F)F)c3)n(-c3ccc(Cl)cc3)n2)N1` [Example 596], the IC50 worked out at 35 nM.
Same read-out and setting: the result for `C[C@@H](OCc1cc(Cl)cc(-c2cc(NC(=O)[C@H]3CNC(=O)N3)nn2-c2ccccc2)c1)C(F)(F)F` [Example 597] reads 60 nM.
The same measure, in the same setting: with `C[C@@H](OCc1cc(Cl)cc(-c2cc(NC(=O)[C@H]3CNC(=O)N3)nn2-c2ccc(F)cc2)c1)C(F)(F)F` [Example 598] the figure was 47 nM; with `CC(C)(OCc1cccc(-c2cc(NC(=O)[C@H]3CNC(=O)N3)nn2-c2ccc(Cl)cc2)c1)C(F)(F)F` [Example 599], 27 nM; with `CC(C)(OCc1cc(Cl)cc(-c2cc(NC(=O)[C@H]3CNC(=O)N3)nn2-c2ccc(F)cc2)c1)C(F)(F)F` [Example 600], 41 nM.
Same read-out and setting: the result for `CC(C)(OCc1cc(F)cc(-c2cc(NC(=O)[C@H]3CNC(=O)N3)nn2-c2ccccc2)c1)C(F)(F)F` [Example 601] reads 31 nM.
`CC(C)(OCc1cc(F)cc(-c2cc(NC(=O)[C@H]3CNC(=O)N3)nn2-c2ccc(F)cc2)c1)C(F)(F)F` [Example 602] returned an IC50 of 28 nM.
Turning to `CC(C)(OCc1cc(F)cc(-c2cc(NC(=O)[C@H]3CNC(=O)N3)nn2-c2ccc(Cl)cc2)c1)C(F)(F)F` [Example 603], the IC50 was determined as 16 nM.

Staying with this experiment, now noted: CHO-K1, at 0.1 uM.
For `C[C@@H](OCc1cccc(-c2cc(NC(=O)[C@@H]3CNC(=O)C3)nn2C2CCOCC2)c1)C(F)(F)F` [Example 582], the inhibition at 0.1 µM worked out at 47%.
The compound `C[C@@H](OCc1cc(F)cc(-c2cc(NC(=O)[C@@H]3CNC(=O)C3)nn2C2CCOCC2)c1)C(F)(F)F` [Example 583] returned an inhibition at 0.1 µM of 48%.
